Source: patent US20030055065A1, “Tricyclic amide and urea compounds useful for inhibition of G-protein function and for treatment of proliferative diseases” (priority 1993, published 2003)
“And” between values parts separate entries of the source, which are not always exact repeats. Equal entries are not always repeated. Where two headings read alike, the source gives them in different places.

What was measured:
[1] = biological target: T1, farnesyl protein transferase (FPT), partially purified from rat brain (Rattus norvegicus, UniProt Q02293+Q04631); experiment: Inhibition of farnesyl protein transferase (transfer of [3H]farnesyl to Ras-CVLS); type: biochemical; conditions: read-out: FPT IC50
T1 construct: were partially purified from rat brain by ammonium sulfate fractionation followed by Q-Sepharose
T1 sequence (Q02293 whole entry, one chain of several): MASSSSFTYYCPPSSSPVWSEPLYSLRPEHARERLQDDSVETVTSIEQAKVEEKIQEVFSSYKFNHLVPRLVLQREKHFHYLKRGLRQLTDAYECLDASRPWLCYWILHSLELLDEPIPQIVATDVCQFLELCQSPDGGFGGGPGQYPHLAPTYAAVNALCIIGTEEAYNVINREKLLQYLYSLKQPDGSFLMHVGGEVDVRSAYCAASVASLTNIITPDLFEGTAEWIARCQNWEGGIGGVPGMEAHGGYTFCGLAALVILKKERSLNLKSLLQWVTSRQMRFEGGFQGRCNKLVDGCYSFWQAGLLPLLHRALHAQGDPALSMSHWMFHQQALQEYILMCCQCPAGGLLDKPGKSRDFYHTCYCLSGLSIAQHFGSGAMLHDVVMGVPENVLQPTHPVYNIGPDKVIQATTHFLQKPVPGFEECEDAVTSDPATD
Outline: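 Partially purified farnesyl protein transferase with His6-tagged val12-Ha-Ras-CVLS substrate and [3H]farnesyl pyrophosphate, 30 min at room temperature. Stopped with SDS/TCA, precipitated Ras collected on GF/C filters; percent inhibition relative to DMSO vehicle control.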

[2] = biological target: T2, geranylgeranyl protein transferase (GGPT) I (Rattus norvegicus, UniProt P53610+Q04631); experiment: Inhibition of geranylgeranyl protein transferase I (Ras-CVLL as acceptor); type: biochemical; conditions: for IC50: enzyme inhibition
T2 construct: were partially purified from rat brain by ammonium sulfate fractionation followed by Q-Sepharose
T2 sequence (P53610 whole entry, one chain of several): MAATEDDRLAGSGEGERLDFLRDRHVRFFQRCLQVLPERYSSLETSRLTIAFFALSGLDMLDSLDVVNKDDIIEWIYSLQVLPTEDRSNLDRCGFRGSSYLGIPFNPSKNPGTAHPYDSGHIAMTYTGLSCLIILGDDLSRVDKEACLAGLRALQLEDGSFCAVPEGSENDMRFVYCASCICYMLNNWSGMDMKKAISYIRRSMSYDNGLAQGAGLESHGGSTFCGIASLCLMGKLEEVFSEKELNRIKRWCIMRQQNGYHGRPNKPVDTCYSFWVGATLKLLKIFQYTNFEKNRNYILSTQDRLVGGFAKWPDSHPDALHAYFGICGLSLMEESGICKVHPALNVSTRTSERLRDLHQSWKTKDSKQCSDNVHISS
Description: 1. In vitro enzyme assays: Inhibition of farnesyl protein transferase and geranylgeranyl protein transferase.
Both farnesyl protein transferase (FPT) and geranylgeranyl protein transferase (GGPT) I were partially purified from rat brain by ammonium sulfate fractionation followed by Q-Sepharose (Pharmacia, Inc.) anion exchange chromatography essentially as described by Yokoyama et al (Yokoyama, K., et al., (1991), A protein geranylgeranyltransferase from bovine brain: Implications for protein prenylation specificity, Proc. Natl. Acad. Sci USA 88: 5302-5306, the disclosure of which is incorporated herein by reference thereto). Human farnesyl protein transferase was also expressed in E. coli, using cDNA clones encoding both the α and β subunits. The methods used were similar to those published (Omer, C. et al., (1993), Characterization of recombinant human farnesyl protein transferase: Cloning, expression, farnesyl diphosphate binding, and functional homology with yeast prenyl-protein transferases, Biochemistry 32:5167-5176). Human farnesyl protein transferase was partially-purified from the soluble protein fraction of E. coli as described above. […] Two forms of val^12-Ha-Ras protein were prepared as substrates for these enzymes, differing in their carboxy terminal sequence. One form terminated in cysteine-valine-leucine-serine (Ras-CVLS) the other in cystein-valine-leucine-leucine (Ras-CVLL). Ras-CVLS is a substrate for the farnesyl protein transferase while Ras-CVLL is a substrate for geranylgeranyl protein transferase I. The cDNAs encoding these proteins were constructed so that the proteins contain an amino-terminal extension of 6 histidine residues. Both proteins were expressed in Escherichia coli and purified using metal chelate affinity chromatography. The radiolabelled isoprenyl pyrophosphate substrates, [^3H]farnesyl pyrophosphate and [3H]geranylgeranyl pyrophosphate, were purchased from DuPont/New England Nuclear.
The geranylgeranyl protein transferase I assay was essentially identical to the farnesyl protein transferase assay described above, with two exceptions: [^3H]geranylgeranylpyrophosphate replaced farnesyl pyrophosphate as the isoprenoid donor and Ras-CVLL was the protein acceptor.

[3] = system: Normal human HEPM fibroblasts; experiment: Cell Mat Assay: density of mat cells (mIC50); type: cell-based
Outline: (§1)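 Serial compound dilutions added 24 h after planting T24-BAG4 cells onto a mat of normal cells, then 14 d colony growth; monolayers glutaraldehyde-fixed and tumor cells X-Gal stained. tIC50 and mIC50 from microscope counts of colonies, cells per colony and mat cell density.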

[4] = system: T24-BAG4 human bladder carcinoma cells expressing an activated H-ras gene; experiment: Cell Mat Assay: tumor cell colony inhibition (tIC50); type: cell-based; conditions: inhibition of tumor cell growth
Outline: as §1

[5] = system: Ras-CVLS processing in COS monkey kidney cells; experiment: COS cell assay: Ras-CVLS processing (Western blot); type: cell-based; conditions: COS cells; for IC50: read-out: Inhibition of Ras Processing IC50
Description: 2. […] Effect of farnesyl protein transferase inhibitors on Ras processing and on disordered cell growth induced by transforming Ras. COS monkey kidney cells were transfected by electroporation with the plasmid pSV-SPORT (Gibco/BRL) containing a cDNA insert encoding either Ras-CVLS or Ras-CVLL, leading to transient overexpression of a Ras substrate for either farnesyl protein transferase or geranylgeranyl protein transferase I, respectively (see above). […] After 24 hours, media was removed and fresh media containing the appropriate drugs was re-added. 48 hours after electroporation cells were examined under the microscope to monitor disordered cell growth induced by transforming Ras. Cells expressing transforming Ras become more rounded and refractile and overgrow the monolayer, reminiscent of the transformed phenotype. […] Cells were lysed by homogenization and cell debris was removed by centrifugation at 2000×g for 10 min. Cellular protein was precipitated by addition of ice-cold trichloroacetic acid and redissolved in 100 μl of SDS-electrophoresis sample buffer. […] Proteins resolved on the gels were electroblotted onto nitrocellulose membranes for immunodetection. […] E., et al., (1982), Monoclonal antibodies to the p21 products of the transforming gene of Harvey murine sarcome virus and of the cellular ras gene family, J. Virol. 43: 294-304), in PBS containing 1% fetal calf serum for one hour at room temperature. After washing, membranes were incubated for one hour at room temperature with a 1:5000 dilution of secondary antibody, rabbit anti-rat IgG conjugated to horseradish peroxidase, in PBS containing 1% fetal calf serum.

[6] = Ras-CVLS farnesylation, partially purified rat brain FPT

| SMILES | IC50 [1, 6] | IC50 ([1]; enzyme inhibition) | IC50 [2] [µM] | IC50 ([3]; Homo sapiens, Fibroblast) [µM] | IC50 ([4]; Homo sapiens) [µM] | IC50 ([5]; Primates, COS) [µM] | other results |
| --- | --- | --- | --- | --- | --- | --- | --- |
| O=C(c1ccc(O)c(O)c1)N1CCC(=C2c3ccc(Cl)cc3CCc3cccnc32)CC1 [Example 8] | 2.3 µM | 2.3 µM | 42 | – | – | – | – |
| O=C(CN1C(=O)c2ccccc2C1=O)N1CCN(C2c3ccc(Cl)cc3CCc3cccnc32)CC1 (centres unmarked) [Example 76] | – | – | > 50 | > 50 | > 50 | – | – |
| O=C(Cc1ccncc1)N1CCC(=C2c3ccc(Br)cc3CCc3cccnc32)CC1 [Example 181] | 0.23 µM | – | > 42 | – | – | – | – |
| O=C(Cc1ccncc1)N1CCC(=C2c3ccc(Cl)cc3CCc3cc(Br)cnc32)CC1 [Example 246] | 0.06 µM | – | > 40 | 50 | – | – | IC50 ([3]; listed as 246 (5.121)): > 50 µM |
| CC(C)(C)c1cnc2c(c1)CCc1cc(Cl)ccc1C2=C1CCN(C(=O)Cc2cccnc2)CC1 [Example 304] | 2.63 µM | – | > 40 | – | – | – | IC50 [3]: > 50 µM |
| O=C(Nc1ccncc1)N1CCC(C2c3ccccc3CCc3cccnc32)CC1 (centres unmarked) [Example 366] | 4 µM | – | – | – | – | – | IC50 [5]: 3.3 µM; IC50 [3]: > 50 µM; IC50 [4]: 3.1 µM |
| O=C(Nc1ccccc1)N1CCC(C2c3ccccc3CCc3cccnc32)CC1 (centres unmarked) [Example 367] | 3.3 µM | – | – | – | – | – | IC50 [5]: 6.2 µM; IC50 [3]: > 50 µM; IC50 [4]: 6.25 µM |
| CN1CCC(CC(=O)N2CCC(C3c4ccc(Cl)cc4C=Cc4cc(Br)cnc43)CC2)CC1 (centres unmarked) [Example 400-B] | 0.068 µM | 0.068 µM | > 38 | – | < 1.6 | – | – |
| CN1CCC(CC(=O)N2CCC(C3c4ccc(Cl)cc4CCc4cc(Br)cnc43)CC2)CC1 (centres unmarked) [Example 400-J] | 0.14 µM | 0.14 µM | 1000 | – | – | – | GGPT inhibition at the concentration in parentheses ([2]; (36) μM): 6 (36) |
| O=C(Cc1cc[n+]([O-])cc1)N1CCC(=C2c3ccc(Cl)cc3CCc3cc(Br)cnc32)CC1 [Example 400-L] | 0.095 µM and 0.09 µM | 0.095 µM and 0.09 µM | – | > 25 | < 1.6 | 0.6 | IC50 [5]: 0.65 µM; IC50 [3]: > 12.5 µM; IC50 [4]: < 0.8 µM |
| CC1(C2CCN(C(=O)Cc3ccncc3)CC2)c2ccc(Cl)cc2CCc2cc(Br)cnc21 (centres unmarked) [Example 410-A] | 0.086 µM | 0.086 µM | ~40 | – | – | – | GGPT inhibition at the concentration in parentheses ([2]; (35) μM): 47 (35) |
| CC1(C2CCN(C(=O)Cc3cc[n+]([O-])cc3)CC2)c2ccc(Cl)cc2CCc2cc(Br)cnc21 (centres unmarked) [Example 410-B] | 0.084 µM | 0.084 µM | 1000 | – | – | – | GGPT inhibition at the concentration in parentheses ([2]; (35) μM): 21 (35) |
| CC(C)(C(=O)N1CCC(=C2c3ccc(Cl)cc3CCc3cc(Br)cnc32)CC1)c1ccc[n+]([O-])c1 [Example 411-A] | – | 0.59 µM | – | > 25 | 1.6 | 0.7 | – |
| O=C(Cc1ccncc1)N1CCC(C2c3ccc(Cl)cc3C=Cc3cc([N+](=O)[O-])cnc32)CC1 (centres unmarked) [Example 411-B] | – | 0.32 µM | – | > 25 | 6.25 | 1.8 | – |
| CC(C)(C(=O)N1CCC(=C2c3ccc(Cl)cc3CCc3cc(Br)cnc32)CC1)c1cc[n+]([O-])cc1 [Example 411-D] | – | 0.62 µM | – | > 25 | 8 | 1.6 | – |
| O=C(Cc1ccc[n+]([O-])c1)N1CCC(=C2c3ccc(Cl)cc3CCc3cc(Br)cnc32)CC1 [Example 411-G] | – | 0.7 µM | – | > 25 | 6.25 | 5.1 | IC50 [3]: > 12.5 µM; IC50 [4]: 4 µM |
| O=C(Cc1cc[n+]([O-])cc1)N1CCC(=C2c3ccc(Cl)cc3CCc3cc(Cl)cnc32)CC1 [Example 411-W] | – | 0.16 µM and 0.17 µM | – | – | – | – | GGPT inhibition at the concentration in parentheses ([2]; (42) μM): 3 (42) |
| CC(C)(C(=O)N1CCC(=C2c3ccc(Cl)cc3CCc3cc(Br)cnc32)CC1)c1ccncc1 [Example 411] | – | 0.32 µM | – | > 25 | 18 | ~1 | Inhibition of Ras Processing at the concentration in parentheses ([5]; (5) μM): 93 (5) |
| CCc1cc2c(cc1Cl)C=Cc1cccnc1C2C1CCN(C(=O)Cc2ccncc2)CC1 (centres unmarked) [Example 417] | – | 1.16 µM | – | 18 | 10 | 4 | – |
| O=C1Cc2cccnc2C(=C2CCN(C(=O)Cc3cc[n+]([O-])cc3)CC2)c2ccc(Cl)cc21 [Example 418] | – | 1.85 µM | – | > 25 | 25 | > 10 | – |
| O=C(Cc1ccncc1)N1CCC(C2c3ccc(Cl)cc3C(=NO)Cc3cccnc32)CC1 (centres unmarked) [Example 419] | – | < 0.12 µM | – | – | – | – | GGPT inhibition at the concentration in parentheses ([2]; (41) μM): 0 (41) |
| O=C(Cc1cc[n+]([O-])cc1)N1CCN([C@H]2c3ccc(Cl)cc3CCc3cccnc32)CC1 [Example 425-E] | – | 0.49 µM | – | > 25 | 1.6 | 5 | – |
| CC(C)(C(=O)N1CCN(C2c3ccc(Cl)cc3CCc3cc(Br)cnc32)CC1)c1cc[n+]([O-])cc1 (centres unmarked) [Example 425-J] | – | 0.39 µM | – | > 25 | 3.1 | 5 | – |
| CN1CCC(CC(=O)N2CCN(C3c4ccc(Cl)cc4CCc4c(Cl)ccnc43)CC2)CC1 (centres unmarked) [Example 425-P] | – | 0.45 µM | – | 3.1 | > 3.1 | 5.7 | – |
| O=C(Cc1cc[n+]([O-])cc1)N1CCN(C2c3ccc(Cl)cc3CCc3c(Cl)ccnc32)CC1 (centres unmarked) [Example 426-A] | – | 0.33 µM | – | > 25 | 6.25 | > 5 | – |
